Measured values: ChEMBL document CHEMBL3739418, “RGD-peptides modifying dexamethasone: to enhance the anti-inflammatory efficacy and limit the risk of osteoporosis” (Medchemcomm, 2015)
Activity calls are given as the source filed them. The rule behind the calls is not given here. Residues, ends and D or L forms follow the SMILES beside them. *: point of attachment. Succinyl(O21-dexamethasone) = C[C@@H]1C[C@H]2[C@@H]3CCC4=CC(=O)C=C[C@]4(C)[C@@]3(F)[C@@H](O)C[C@]2(C)[C@@]1(O)C(=O)COC(=O)CCC(=O)*

Columns and labels:
Mus musculus [1] = assay: Toxicity in BALB/C mouse assessed as decrease in dry femur weight at 1.43 umol/kg/day, po administered for 15 days; type: organism-based; conditions: in vivo, 360 h
Mus musculus [2] = assay: Antiinflammatory activity in xylene-induced ICR mouse edema model assessed as decrease in plasma TNFalpha level at 25.5 umol/kg, po after 60 mins by microplate reader analysis; type: functional, organism-based
[3] = Drug metabolism in cytosome of human A549 cells assessed as dexamethasone dimer formation at 1 uM by ESI-MS analysis; type: ADME, cell-based, Cytoplasm; conditions: a549, 1 µM
Mus musculus [4] = assay: Toxicity in BALB/C mouse assessed as total volumetric bone mineral density at 1.43 umol/kg/day, po administered for 15 days (reference value: 554.3 +/- 17.2 mg/cm3); type: organism-based; conditions: in vivo, 360 h
Mus musculus [5] = assay: Antiinflammatory activity in ICR mouse assessed as inhibition of xylene-induced edema at 25.5 umol/kg, po administered for 30 mins prior to xylene challenge measured after 2 hrs; type: functional, organism-based
A549 = assay: Downregulation of DNA replication in human A549 cells at 1 uM after 48 hrs by UV-visible spectrophotometric analysis; type: functional, cell-based
Mus musculus [6] = assay: Antiinflammatory activity in xylene-induced ICR mouse edema model assessed as decrease in plasma IL8 level at 25.5 umol/kg, po after 60 mins by microplate reader analysis; type: functional, organism-based
Mus musculus [7] = assay: Antiinflammatory activity in po dosed ICR mouse assessed as inhibition of xylene-induced edema administered for 30 mins prior to xylene challenge measured after 2 hrs; type: functional, organism-based
Mus musculus [8] = assay: Toxicity in BALB/C mouse assessed as femur loss at 1.43 umol/kg/day, po administered for 15 days by pQCT analysis; type: organism-based; conditions: in vivo, 360 h
Mus musculus [9] = assay: Toxicity in BALB/C mouse assessed as decrease in femur calcium level at 1.43 umol/kg/day, po administered for 15 days by o-methylphenolphthalein complexing ketone-based assay; type: organism-based; conditions: in vivo, 360 h
Mus musculus [10] = assay: Toxicity in BALB/C mouse assessed as decrease in ash weight at 1.43 umol/kg/day, po administered for 15 days; type: organism-based; conditions: in vivo, 360 h
Mus musculus [11] = assay: Toxicity in BALB/C mouse assessed as decrease in femur phosphor level at 1.43 umol/kg/day, po administered for 15 days by molybdenum blue-based assay; type: organism-based; conditions: in vivo, 360 h

Drug metabolism [3]	Structure (SMILES)	Activity (Mus musculus [1])	Activity (Mus musculus [2])	Activity (Mus musculus [4])	inhibition (Mus musculus [5])	Activity (A549)	Activity (Mus musculus [6])	inhibition (Mus musculus [7])	Activity (Mus musculus [8])	Activity (Mus musculus [9])	Activity (Mus musculus [10])	Activity (Mus musculus [11])
metabolite_detected	C[C@@H]1C[C@H]2[C@@H]3CCC4=CC(=O)C=C[C@]4(C)[C@@]3(F)[C@@H](O)C[C@]2(C)[C@@]1(O)C(=O)COC(=O)CCC(=O)N[C@@H](CCCNC(=N)N)C(=O)NCC(=O)N[C@@H](CC(=O)O)C(=O)N[C@@H](Cc1ccccc1)C(=O)O ({Succinyl(O21-dexamethasone)}-RGDF-OH)	Non-toxic	Active	555.1 mg/cm3	Active	Active	Active	–	–	–	–	–
metabolite_detected	C[C@@H]1C[C@H]2[C@@H]3CCC4=CC(=O)C=C[C@]4(C)[C@@]3(F)[C@@H](O)C[C@]2(C)[C@@]1(O)C(=O)COC(=O)CCC(=O)N[C@@H](CCCNC(=N)N)C(=O)NCC(=O)N[C@@H](CC(=O)O)C(=O)N[C@@H](CO)C(=O)O ({Succinyl(O21-dexamethasone)}-RGDS-OH)	Non-toxic	Active	558.5 mg/cm3	–	Active	Active	Dose-dependent effect	–	–	–	–
–	C[C@@H]1C[C@H]2[C@@H]3CCC4=CC(=O)C=C[C@]4(C)[C@@]3(F)[C@@H](O)C[C@]2(C)[C@@]1(O)C(=O)CO [DEXAMETHASONE]	Toxic	Active	506.3 mg/cm3	Active	Active	Active	–	Toxic	Toxic	Toxic	Non-toxic
metabolite_detected	CC(C)[C@H](NC(=O)[C@H](CC(=O)O)NC(=O)CNC(=O)[C@H](CCCNC(=N)N)NC(=O)CCC(=O)OCC(=O)[C@@]1(O)[C@H](C)C[C@H]2[C@@H]3CCC4=CC(=O)C=C[C@]4(C)[C@@]3(F)[C@@H](O)C[C@@]21C)C(=O)O ({Succinyl(O21-dexamethasone)}-RGDV-OH)	Non-toxic	Active	540.3 mg/cm3	Active	Active	Active	–	–	–	–	–
